Among the data in patent US20120095046A1, “Amido-Isothiazole Compounds and Their Use as Inhibitors of 11Beta-HSD1 for the Treatment of Metabolic Syndrome and Related Disorders” (THE UNIVERSITY OF EDINBURGH, priority 2009, published 2012) are IC50 values, retold here.

For one assay, the target named is T1, human 11β-HSD2 (Homo sapiens, UniProt P80365).
T1 construct: CHO cells stably transfected with the full-length gene coding for human 11β-HSD2 were used; expressed in transfected cells
T1 sequence (P80365 1-405): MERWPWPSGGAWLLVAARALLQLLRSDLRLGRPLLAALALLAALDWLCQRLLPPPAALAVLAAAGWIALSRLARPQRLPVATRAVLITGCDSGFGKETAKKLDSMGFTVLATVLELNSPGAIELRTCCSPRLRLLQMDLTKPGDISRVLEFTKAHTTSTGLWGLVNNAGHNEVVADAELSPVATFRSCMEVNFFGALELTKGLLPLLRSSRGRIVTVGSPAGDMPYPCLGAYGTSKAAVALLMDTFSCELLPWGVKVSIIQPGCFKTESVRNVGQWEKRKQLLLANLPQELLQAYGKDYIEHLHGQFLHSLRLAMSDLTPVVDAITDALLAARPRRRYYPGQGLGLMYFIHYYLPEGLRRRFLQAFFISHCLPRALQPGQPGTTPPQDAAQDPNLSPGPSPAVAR
The experiment in a line: Cellular in vitro 11β-HSD2 enzyme inhibition assay (CHO cells, TLC/phosphoimager). In kind it is cell-based. The conditions noted are these: CHO cells stably transfected with human 11β-HSD2; 22 nM tritiated cortisol, 16 hours. As to the method: Cellular In Vitro 11β-HSD2 Enzyme Inhibition Assay
For measurement of inhibition of 11β-HSD2, CHO cells stably transfected with the full-length gene coding for human 11β-HSD2 were used. Assays were carried out in 96-well microplates containing 1×10^5 cells/well. Controls and compounds were plated as above, so that the final DMSO concentration in each well was 1%. To initiate the assay, 90 μL of a solution of HAMS F-12 medium containing 1% glutamine, 1% penicillin and streptomycin, and 22 nM tritiated cortisol was added to each well of the assay plate. The plate was then incubated in 5% CO2, 95% O2 at 37° C. for 16 hours.
The assay solutions were transferred to glass tubes and 20 μL ethyl acetate added to each tube. Each tube was vortexed thoroughly and the upper layer containing the tritiated steroid transferred to a fresh glass tube. The solvent was evaporated by placing the tubes in a heating block at 65° C. under a stream of Nitrogen gas. 20 μL ethanol was added to each of the dried samples and vortexed briefly. Each sample was applied to a silica TLC plate and the plate dried. The plate was placed vertically in a glass tank containing 92% chloroform:8% ethanol and the solvent allowed to rise up the plate. The plate was dried, placed in an imaging cassette, and overlayed with a tritium imaging plate for 1-2 days. The amount of enzyme inhibition in each sample was determined by measuring the intensity of the substrate and product spots using a phosphoimager.
IC50 values for inhibitors were determined as described for 11β-HSD1.

The target of a further assay is T2, human 11β-HSD1 enzyme (Homo sapiens, UniProt P28845).
T2 construct: stably transfected with a construct containing the full-length gene coding for the human 11β-HSD1 enzyme; expressed in transfected cells; HEK293/11β-HSD1)
Briefly: Cellular in vitro 11β-HSD1 enzyme inhibition assay (SPA, HEK293/11β-HSD1 cells). In kind it is cell-based. The following applies: HEK293 cells stably transfected with human 11β-HSD1; 22 nM tritiated cortisone, 2 hours. How it is done:
Cellular In Vitro 11β-HSD1 Enzyme Inhibition Assay
Compounds were assessed by a Scintillation Proximity Assay (SPA) performed according to the following protocol:
HEK293 cells were stably transfected with a construct containing the full-length gene coding for the human 11β-HSD1 enzyme to create HEK293/11β-HSD1 cells. Cells were routinely cultured in DMEM containing 10% calf foetal serum, 1% glutamine, and 1% penicillin and streptomycin. Prior to assay, cells were plated at 2×10^4 cells/well in 96-well poly-D-Lys coated flat-bottomed microplates and incubated in 5% CO2, 95% O2 at 37° C. for 24 hours. The media in each well was removed immediately before assay.
Compounds to be tested were dissolved in DMSO at 10 mM and serially diluted into water containing 10% DMSO. Diluted compounds at a volume of 10 μL were added to wells of a 96-well V-bottomed microplate. A solution of DMEM, 1% glutamine, 1% penicillin and streptomycin, and 22 nM tritiated cortisone was prepared and 90 μL added to each well of the assay plate. This solution (100 μL/well) was transferred to the plate containing the cells. The plate was then incubated in 5% CO2, 95% O2 at 37° C. for 2 hours.
Following this incubation, 50 μL of the assay solution was transferred to each well of a 96-well scintillation microplate. A mixture consisting of anti-mouse YSi SPA beads, pre-mixed with anti-cortisol antibody in assay buffer (50 mM Tris.HCl, pH 7.0; 300 mM NaCl; 1 mM EDTA, 5% glycerol) was prepared and 50 μL added to each well of the scintillation microplate. An adhesive strip was applied to the microplate and the plate gently shaken for at least 2 hours at room temperature, and then spun briefly on a low speed centrifuge. The plate was read on a scintillation counter suitable for 96-well microplates. For the calculation of percentage inhibition, a series of wells were added to the plate that represented the assay maximum and the assay minimum: one set that contained substrate without cells (minimum) and another set that contained substrate and cells without any compound (maximum).
The calculation of median inhibitory concentration (IC50) values for the compounds was performed using GraphPad Prism® software. Dose-response curves for each compound were plotted as fractional inhibition and data fitted to the four parameter logistic equation.

The structures appear in SMILES notation.

T2 sequence (P28845 whole entry): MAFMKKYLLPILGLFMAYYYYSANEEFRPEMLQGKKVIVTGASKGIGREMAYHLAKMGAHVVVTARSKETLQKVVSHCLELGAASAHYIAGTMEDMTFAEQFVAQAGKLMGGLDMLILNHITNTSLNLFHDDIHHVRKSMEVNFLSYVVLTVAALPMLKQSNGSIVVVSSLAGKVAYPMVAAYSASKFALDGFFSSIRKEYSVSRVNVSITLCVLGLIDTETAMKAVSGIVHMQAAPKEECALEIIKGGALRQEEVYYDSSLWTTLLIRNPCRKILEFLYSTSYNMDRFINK

Turning to `O=C(c1cc(-c2cn[nH]c2)sn1)N1CCCC1c1ccc(F)cc1` (stereo not drawn) [BB-02, [2-(4-Fluoro-phenyl)-pyrrolidin-1-yl]-[5-(1H-pyrazol-4-yl)-isothiazol-3-yl]-methanone], the IC50 at human 11β-HSD2 was above 10000 nM; at human 11β-HSD1 enzyme, at most 500 nM.

For `O=C(c1cc(-c2cn[nH]c2)sn1)N1CCC[C@@H]2CCCC[C@@H]21` [BB-01, (4aS,8aS)-Octahydro-quinolin-1-yl-[5-(1H-pyrazol-4-yl)-isothiazol-3-yl]-methanone], the IC50 was above 10000 nM against human 11β-HSD2 and 18 nM against human 11β-HSD1 enzyme.

With `O=C(c1cc(-c2ccccc2)sn1)N1CCCC2CCCCC21` (stereo not drawn) [AA-02, (Octahydro-quinolin-1-yl)-(5-phenyl-isothiazol-3-yl)-methanone], the results for the IC50 at human 11β-HSD2 and against human 11β-HSD1 enzyme were above 10000 nM and at most 500 nM, respectively.

With `O=C(c1cc(C2CCOCC2)sn1)N1CCC[C@@H]2CCCC[C@@H]21` [CC-01, (4aS,8aS)-Octahydro-quinolin-1-yl-[5-(tetrahydro-pyran-4-yl)-isothiazol-3-yl]-methanone], the 50% inhibitory concentration (IC50) at human 11β-HSD2 is above 10000 nM; on human 11β-HSD1 enzyme it was 62 nM.

Regarding `O=C(c1cnsc1-c1ccccc1)N1CCCC2CCCCC21` (stereo not drawn) [AA-01, (Octahydro-quinolin-1-yl)-(5-phenyl-isothiazol-4-yl)-methanone], the IC50 was above 10000 nM against human 11β-HSD2 and 59 nM against human 11β-HSD1 enzyme.

For `O=C1c2ccccc2C(=O)N1c1cc(C(=O)N2CCC[C@@H]3CCCC[C@@H]32)ns1` [BB-03, 2-[3-((4aS,8aS)-Octahydro-quinoline-1-carbonyl)-isothiazol-5-yl]-isoindole-1,3-dione], the half-inhibitory concentration (IC50) against human 11β-HSD2 is above 10000 nM; at human 11β-HSD1 enzyme, at most 500 nM.

As usually defined, the IC50 is the concentration that gives 50% inhibition. A high value points to a need for much substance.
